Data taken from patent publication US8575142B2, “Agent for improving insulin resistance” (Morinaga Milk Industry Co., Ltd., priority 2005, dated 2013).
“And” between values parts separate entries of the source, which are not always exact repeats. Equal values may be shown once.

Columns and labels:
Type in all cases: in vivo
[1] = test system: AKR mice to which insulin resistance was induced by feeding with a high-fat diet; test: Level of free fatty acid in serum of AKR mice with high-fat-diet-induced insulin resistance; settings: 60th day of oral administration; for Free fatty acid: mouse serum, under fasting, 25 μg/kg of body weight once a day; for Test sample/negative sample (free fatty acid level in serum): relative to negative sample group, 25 μg/kg once a day
Experimental: Compound 3 (4-methylcholest-7-en-3-ol), Compound 4 (4-methylergost-7-en-3-ol), and Compound 5 (4-methylstigmast-7-en-3-ol) which were produced in Preparation Example 1 were each dissolved in DMSO and adjusted with distilled water to each have a concentration of 1 μg/ml, to thereby prepare Test Samples 1, 2, and 3. In this case, DMSO was adjusted to have a final concentration of 0.2%.
After that, the mice were divided into groups of 8 mice each. Each of the groups of mice were orally administered with 1 ml per 40 g of body weight (25 μg/kg of body weight) of a test sample or the negative sample once a day using a sonde.

[2] = test system: AKR mice to which insulin resistance was induced by feeding with a high-fat diet; test: Insulin tolerance test in AKR mice with high-fat-diet-induced insulin resistance; settings: 45th day of oral administration, 25 μg/kg once a day; 4 hours fasted; 0.75 U/kg human insulin intraperitoneally; up to 60 minutes; compared with negative sample
Experimental: The present example was performed by using AKR mice to which insulin resistance was induced by feeding with a high-fat diet, to confirm an enhancing effect of the agent for improving insulin resistance of the present invention on insulin sensitivity by performing an insulin tolerance test.
In Example 3, the same test samples and negative sample as those prepared in Examples 1 and 2 were used.
After that, the mice were divided into groups of 8 mice each. Each of the groups of mice was orally administered with 1 ml per 40 g of body weight (25 μg/kg of body weight) of a test sample or the negative sample once a day using a sonde. […] The insulin tolerance test in the present example was performed in such a manner that: the mice were fasted for 4 hours, and were then intraperitoneally administered with 0.75 U/kg of body weight of a human insulin (Eli Lily and Company); and changes with time in blood glucose level were measured from the initiation of the administration of insulin to after 60 minutes later.

[3] = test system: MCP-1; test: MCP-1 production by epididymal fat tissues collected from treated insulin-resistant AKR mice (ELISA); settings: for MCP-1: culture supernatant of epididymal fat tissue after 1 hour culture, 60th day of oral administration, 25 μg/kg once a day; for Effect on production of MCP-1 as compared with negative sample group: fat tissues, 60th day, 25 μg/kg oral once a day, Tukey-Kramer's test
Experimental: (§1) The present example was performed by using AKR mice to which insulin resistance was induced by feeding with a high-fat diet, to evaluate the effects of the agent for amelioration insulin resistance of the present invention on production of TNF-α and MCP-1 from respective cells of fat tissues.
(§2) In Example 2, the same test samples and negative sample as those prepared in Example 1 were used.
(§3) After that, the mice were divided into groups of 8 mice each. Each of the groups of mice was orally administered with 1 ml per 40 g of body weight (25 μg/kg of body weight) of a test sample or the negative sample once a day using a sonde. […] After 1 hour of the culture, culture supernatants were collected, and concentrations of TNF-α and MCP-1 in the culture supernatants were measured by ELISA (Biosource).

[4] = test system: TNF-α; test: TNF-α production by epididymal fat tissues collected from treated insulin-resistant AKR mice (ELISA); settings: for TNF-α: culture supernatant of epididymal fat tissue after 1 hour culture, 60th day of oral administration, 25 μg/kg once a day; for Effect on production of TNF-α as compared with negative sample group: fat tissues, 60th day, 25 μg/kg oral once a day, Tukey-Kramer's test
Experimental: as §1, §2, §3

SMILES	Free fatty acid [1]	Test sample/negative sample (free fatty acid level in serum) [1]	Change in blood glucose level after administration of insulin (FIG. 1) [2]	MCP-1 [3]	Effect on production of MCP-1 as compared with negative sample group [3]	TNF-α [4]	Effect on production of TNF-α as compared with negative sample group [4]
CC(C)CCCC(C)C1CCC2C3=CCC4C(C)C(O)CCC4(C)C3CCC21C (stereo not drawn) [Test Sample 1, 4-methylcholest-7-en-3-ol]	1.35 ± 0.23 mEp/l	86.4% and 84.5%	rapid reduction in blood glucose levels	100.86 ± 8.31 pg/mL	significant inhibitory effects	33.73 ± 1.68 pg/mL	significant inhibitory effects
CC(C)C(C)CCC(C)C1CCC2C3=CCC4C(C)C(O)CCC4(C)C3CCC21C (stereo not drawn) [Test Sample 2, 4-methylergost-7-en-3-ol]	1.21 ± 0.22 mEp/l	81.6%	rapid reduction in blood glucose levels	95.56 ± 10.56 pg/mL	significant inhibitory effects	32.71 ± 1.70 pg/mL	significant inhibitory effects
CCC(CCC(C)C1CCC2C3=CCC4C(C)C(O)CCC4(C)C3CCC21C)C(C)C (stereo not drawn) [Test Sample 3, 4-methylstigmast-7-en-3-ol]	0.90 ± 0.15 mEp/l	60.8%	rapid reduction in blood glucose levels	87.80 ± 9.24 pg/mL	significant inhibitory effects	29.80 ± 3.82 pg/mL	significant inhibitory effects
